Molecular target: T1, α-synuclein (α-syn) (Homo sapiens, UniProt P37840)
T1 construct: purchased rPeptide (Watkinsville, GA)
Experiment: Thioflavin T (ThT) fluorescence assay of α-syn fibril formation
Type: biochemical
Conditions: for remaining activity at 100 µM: α-syn 2 μM final concentration, compounds at 100 μM, average of three replicates with SEM, read-out: % ThT intensity (100 μM), maximum ThT intensity in percentage
Method: Chemical and peptide source. Dimethylsulfoxide (DMSO) and thioflavin-T (ThT) were purchased from Alfa Aesar (Ward Hill, MA). Recombinant α-synuclein (α-syn) was procured from rPeptide (WatKinsville, GA). The recombinant p-tau isoform 1N4R was prepared as published previously (Fortin et al. 2021, Sui et al. 2015, Liu et al. 2020). Concerning the preparation of tau 0N4R, a bacterial expression plasmid consisting of the vector pET30a carrying a cDNA encoding the human Tau 0N4R isoform was a kind gift of Dr. Benjamin Wolozin (Boston University). E. coli stock (Rosetta BL21 E. coli (CamR) containing pET30a [0N4R tau wt] (KanR)) was grown in LB medium supplemented with kanamycin (50 μg/mL) and chloramphenicol (50 μg/mL). Protein over-expression was induced by the addition of 1 mM IPTG for ˜18 hours at 37° C., and cells were pelleted by centrifugation at 6,000 g for 15 minutes at 4° C. The cells were resuspended in lysis buffer (10 mM Hepes, pH 7.4, 50 mM NaCl, 1 mM MgCl2, 1 mM PMSF, 1× PIC, and 0.5 mM DTT) and lysed by sonication at 30 seconds “On” and 1 minute “Off” at ˜30-45% power for ˜3-5 minutes. Lysate was centrifuged at 10,000 rpm for 10 minutes at 4° C., and supernatant was transferred with 7.8 ml (total) of 3M NaCl. The lysate was incubated for 10 minutes in 80° C. water bath, then cooled for 10 minutes in an ice bath. The lysate was centrifuged at 10,000 rpm at 4° C. for 10 minutes, and the supernatant was transferred to a new tube. The supernatant was dialyzed overnight against cation exchange buffer (50 mM MES, […], 1 mM DTT, pH 6.0). The dialysate was loaded onto a HiPrep SP HP column, and proteins were eluted with a linear gradient ranging from 50 mM to 1 M NaCl. General Characterizations. ^1H and ^13C {1H} NMR spectra were recorded using a 500 MHz Bruker instrument working at a frequency of 500 MHz for ^1H and at 126 MHz for ^13C. Chemical shifts are reported in ppm using residual solvent resonances as internal reference (δ 2.50 and δ 39.51 for ^1H and ^13C in DMSO-d6, respectively). ^1H NMR data are reported as follows. b=broad, s=singlet, d=doublet, t=triplet, q=quartet, and m=multiplet. Coupling constants are given in hertz. The purity of all compounds and synthetic intermediates was judged to be 95% or better based on ^1H NMR. IR measurements were performed in a Nicolet FTIR as thin films in the Purdue Drug Discovery facility. High-resolution mass spectrometry analyses were conducted at the MSU Mass Spectrometry facility. Thioflavin fluorescence assays. […] The recombinant α-syn obtained from rPeptide has been validated with proper quality control to confirm the monomeric state of the protein. Kinetics of fibril formation have been performed using ThT as published previously.^6, 12, 13, 24 The fluorescence emission experiments were performed with the excitation and emission wavelengths set at 440 and 485 nm, respectively, with a Synergy HT multi-mode microplate reader (BioTek, Winooski, VT). Samples were measured in three replicates. Experiments were repeated three times using different α-syn stock solutions. For each time point, arbitrary units of fluorescence were calculated from the mean values normalized against the maximum value. The percentage of fluorescence intensity at the plateau phase in Table 1 was expressed as mean #SEM. Concerning the dose response curve depicted in FIG. 2, the data were plotted using GraphPad Prism. Photo-induced Cross-linking of Unmodified Proteins (PICUP) Assay. To induce oligomerization by cross-linking, α-syn (from Rpeptide, LLC) was diluted in 10 mM phosphate buffer (pH 7.4) to reach a final concentration of 50 μM. Different compounds were added to the protein solution at a final concentration of 50 μM, resulting in a molar ratio of 1:1. PICUP assays were performed with the following controls: samples without light exposition, without Ru(bpy) or ammonium persulfate, and without compound (i.e., 0.125% DMSO). […]

Row | SMILES | EC50 (Log (agonist) vs. normalized response (variable slope), Prism, α-syn 6 μM, 47 hours, 12.5, 25, 50 and 100 μM, read-out: Log EC50 (dose response curve of α-syn fibrillation, ThT) (converted)) [µM] | remaining activity at 100 µM [%] | dose-dependent reduction of α-syn fibrillation (ThT) (α-syn 6 μM, 47 hours, 12.5, 25, 50 and 100 μM)
1 | O=C(Nc1ccc(NC(=O)Nc2cccc3[nH]ccc23)cc1)Nc1cccc2[nH]ccc12 [Compound 1, 3-(1H-indol-4-yl)-1-(4-{[(1H-indol-4-yl)carbamoyl]amino}phenyl)urea] | 15.9 ± 2.8 | 5.3 | 
2 | S=C(Nc1ccc(NC(=S)Nc2cccc3[nH]ccc23)cc1)Nc1cccc2[nH]ccc12 [Compound 2, 3-(1H-indol-4-yl)-1-(4-{[(1H-indol-4-yl)carbamothioyl]amino}phenyl)thiourea] |  | 15.2 | dose-dependent reduction
3 | S=C(Nc1ccc(NC(=S)Nc2cccc3cc[nH]c23)cc1)Nc1cccc2cc[nH]c12 [Compound 8, 3-(1H-indol-7-yl)-1-(4-{[(1H-indol-7-yl)carbamothioyl]amino}phenyl)thiourea] |  | 41.6 | 

— patent US20250241890A1, “1,4-DIUREAS AND 1,4-DITHIOUREAS AND USES THEREOF” (Purdue Research Foundation, priority 2024, published 2025)
